# Experimental data reported in patent US20220008391A1, “NOVEL COMPOUNDS FOR CONTROLLING ARTHROPODS” (Bayer Animal Health GmbH, priority 2018, published 2022).
# Test: Measurement of solubility in buffer at pH 6.5
# Type: physicochemical
# Settings: aqueous buffer, kinetic from dmso stock; PBS buffer pH 6.5, shaken 24h at rt, LC-MSMS; read-out: Solubility of example compounds at pH 6.5
# Method: Measurement of Solubility in Buffer at pH 6.5 2-4 mg of the test compound are dissolved in DMSO to reach a concentration of 50 g/L (solution A). To 10 μl of this solution 960 μl PBS buffer pH 6.5 are added (final concentration: 515 μg/1); the mixture is shaken for 24h at rt in a 96 well plate. An aliquot is centrifuged at 42000 rpm für 30 min. The supernatant is diluted with acetonitrile/water (8:2) 1:10 and 1:1000 resp. This diluted samples are analyzed by LC-MSMS. Calibration: 10 μl of solution A are diluted with 823 μl DMSO (final concentration: 600 μg/ml), which is further diluted with acetonitrile/water 8:2 by a factor of 100 (provides solution B). The calibration curve is obtained from solution B by further diluting with acetonitrile/water 8:2 with target concentrations of 1.2-12-60-600 ng/ml and injecting these four solutions for MS measurement. PBS-Puffer: 6.18 g sodium chloride and 3.96 g sodium dihydrogen phosphate are dissolved in 1 L aqua dist., the pH is adjusted to 6.5 with 1N sodium hydroxide. The following conditions were used for quantification: Autosampler without auto inject ahead setting, column: Waters OASIS HLB, 2,1×20 mm, 25μ, column temperature: 30° C., flow rate: 2.5 mL/min, injected volume: 2 μl, Splitter (before MS) 1:20.
row,SMILES,solubility at 24 h [mg/mL]
1,"Cn1nc(C(F)(F)C(F)(F)F)c(C(F)(F)F)c1-n1cc(-c2ccc(Cl)c(C(=O)N(COC(=O)O[C@H]3CCC[C@@H]3OC(=O)/C=C/C(=O)O)C3(C#N)CC3)c2)cn1 [Example 42, (2E)-4-({(1S,2S)-2-[({[{2-Chloro-5-[2′-methyl-5′-(pentafluoroethyl)-4′-(trifluoromethyl)-2′H-[1,3′-bipyrazol]-4-yl]benzoyl}(1-cyanocyclopropyl)amino]methoxy}carbonyl)oxy]cyclopentyl}oxy)-4-oxobut-2-enoic Acid]",0.038
2,"N#CC1(N(COC(=O)O[C@H]2CC[C@@H](OC(=O)/C=C/C(=O)O)CC2)C(=O)c2cc(-c3cnn(-c4c(Cl)cc(C(F)(C(F)(F)F)C(F)(F)F)cc4OC(F)(F)F)c3)ccc2Cl)CC1 [Example 14, (2E)-4-({cis-4-[({[(2-chloro-5-{1-[2-chloro-4-(1,1,1,2,3,3,3-heptafluoropropan-2-yl)-6-(trifluoromethoxy)phenyl]-1H-pyrazol-4-yl}benzoyl)(1-cyanocyclopropyl)amino]methoxy}carbonyl)oxy]cyclohexyl}oxy)-4-oxobut-2-enoic Acid]",0.019
3,"Cn1nc(C(F)(F)C(F)(F)F)c(C(F)(F)F)c1-n1cc(-c2ccc(Cl)c(C(=O)N(COC(=O)O[C@H]3CC[C@H](C(=O)O)CC3)C3(C#N)CC3)c2)cn1 [Example 24, Trans-4-[({[{2-Chloro-5-[2′-methyl-5′-(pentafluoroethyl)-4′-(trifluoromethyl)-2′H-[1,3′-bipyrazol]-4-yl]benzoyl}(1-cyanocyclopropyl)amino]methoxy}carbonyl)oxy]cyclohexane-1-carboxylic Acid]",0.057
4,"CC(C)(COCCOC(=O)OCN(C(=O)c1cc(-c2cnn(-c3c(Cl)cc(C(F)(C(F)(F)F)C(F)(F)F)cc3OC(F)(F)F)c2)ccc1Cl)C1(C#N)CC1)C(=O)O [Example 8, 1-(2-chloro-5-{1-[2-chloro-4-(1,1,1,2,3,3,3-heptafluoropropan-2-yl)-6-(trifluoromethoxy)phenyl]-1H-pyrazol-4-yl}phenyl)-2-(1-cyanocyclopropyl)-11,11-dimethyl-1,5-dioxo-4,6,9-trioxa-2-azadodecan-12-oic Acid]",0.001
5,"Cn1nc(C(F)(F)C(F)(F)F)c(C(F)(F)F)c1-n1cc(-c2ccc(Cl)c(C(=O)N(COC(=O)OCC3(C(=O)O)CC3)C3(C#N)CC3)c2)cn1 [Example 31, 1-{[({[{2-Chloro-5-[2′-methyl-5′-(pentafluoroethyl)-4′-(trifluoromethyl)-2′H-[1,3′-bipyrazol]-4-yl]benzoyl}(1-cyanocyclopropyl)amino]methoxy}carbonyl)oxy]methyl}cyclopropane-1-carboxylic Acid]",0.168
6,"Cn1nc(C(F)(F)C(F)(F)F)c(C(F)(F)F)c1-n1cc(-c2ccc(Cl)c(C(=O)N(COC(=O)OCCCC(=O)O)C3(C#N)CC3)c2)cn1 [Example 20, 4-[({[{2-Chloro-5-[2′-methyl-5′-(pentafluoroethyl)-4′-(trifluoromethyl)-2′H-[1,3′-bipyrazol]-4-yl]benzoyl}(1-cyanocyclopropyl)amino]methoxy}carbonyl)oxy]butanoic Acid]",0.212
7,"Cn1nc(C(F)(F)C(F)(F)F)c(C(F)(F)F)c1-n1cc(-c2ccc(Cl)c(C(=O)N(COC(=O)OCC(C)(C)COC(=O)/C=C/C(=O)O)C3(C#N)CC3)c2)cn1 [Example 39, (12E)-1-{2-chloro-5-[2′-methyl-5′-(pentafluoroethyl)-4′-(trifluoromethyl)-2′H-[1,3′-bipyrazol]-4-yl]phenyl}-2-(1-cyanocyclopropyl)-8,8-dimethyl-1,5,11-trioxo-4,6,10-trioxa-2-azatetradec-12-en-14-oic Acid]",0.043

# Second part, the molecule after the results:
row,solubility at 24 h [mg/mL],SMILES
1,0.003,"N#CC1(N(COC(=O)OCCOC(=O)CCCC(=O)O)C(=O)c2cc(-c3cnn(-c4c(Cl)cc(C(F)(C(F)(F)F)C(F)(F)F)cc4OC(F)(F)F)c3)ccc2Cl)CC1 [Example 12, 1-(2-Chloro-5-{1-[2-chloro-4-(1,1,1,2,3,3,3-heptafluoropropan-2-yl)-6-(trifluoromethoxy)phenyl]-1H-pyrazol-4-yl}phenyl)-2-(1-cyanocyclopropyl)-1,5,10-trioxo-4,6,9-trioxa-2-azatetradecan-14-oic Acid]"
2,0.006,"N#CC1(N(COC(=O)OCCOC(=O)CCC(=O)O)C(=O)c2cc(-c3cnn(-c4c(Cl)cc(C(F)(C(F)(F)F)C(F)(F)F)cc4OC(F)(F)F)c3)ccc2Cl)CC1 [Example 3, 1-(2-Chloro-5-{1-[2-chloro-4-(1,1,1,2,3,3,3-heptafluoropropan-2-yl)-6-(trifluoromethoxy)phenyl]-1H-pyrazol-4-yl}phenyl)-2-(1-cyanocyclopropyl)-1,5,10-trioxo-4,6,9-trioxa-2-azatridecan-13-oic Acid]"
3,0.007,"N#CC1(N(COC(=O)OCCCC(=O)O)C(=O)c2cc(-c3cnn(-c4c(Cl)cc(C(F)(C(F)(F)F)C(F)(F)F)cc4OC(F)(F)F)c3)ccc2Cl)CC1 [Example 37, 4-[({[(2-Chloro-5-{1-[2-chloro-4-(1,1,1,2,3,3,3-heptafluoropropan-2-yl)-6-(trifluoromethoxy)phenyl]-1H-pyrazol-4-yl}benzoyl)(1-cyanocyclopropyl)amino]methoxy}carbonyl)oxy]butanoic Acid]"
4,0.002,"N#CC1(N(COC(=O)O[C@H]2CC[C@@H](C(=O)O)CC2)C(=O)c2cc(-c3cnn(-c4c(Cl)cc(C(F)(C(F)(F)F)C(F)(F)F)cc4OC(F)(F)F)c3)ccc2Cl)CC1 [Example 17, Cis-4-[({[(2-Chloro-5-{1-[2-chloro-4-(1,1,1,2,3,3,3-heptafluoropropan-2-yl)-6-(trifluoromethoxy)phenyl]-1H-pyrazol-4-yl}benzoyl)(1-cyanocyclopropyl)amino]methoxy}carbonyl)oxy]cyclohexane-1-carboxylic Acid]"
5,0.002,"N#CC1(N(COC(=O)O[C@H]2CC[C@H](OC(=O)/C=C/C(=O)O)CC2)C(=O)c2cc(-c3cnn(-c4c(Cl)cc(C(F)(C(F)(F)F)C(F)(F)F)cc4OC(F)(F)F)c3)ccc2Cl)CC1 [Example 16, (2E)-4-({trans-4-[({[(2-chloro-5-{1-[2-chloro-4-(1,1,1,2,3,3,3-heptafluoropropan-2-yl)-6-(trifluoromethoxy)phenyl]-1H-pyrazol-4-yl}benzoyl)(1-cyanocyclopropyl)amino]methoxy}carbonyl)oxy]cyclohexyl}oxy)-4-oxobut-2-enoic Acid]"
6,0.042,"N#CC1(N(COC(=O)OCC(=O)O)C(=O)c2cc(-c3cnn(-c4c(Cl)cc(C(F)(C(F)(F)F)C(F)(F)F)cc4OC(F)(F)F)c3)ccc2Cl)CC1 [Example 19, [({[(2-chloro-5-{1-[2-chloro-4-(1,1,1,2,3,3,3-heptafluoropropan-2-yl)-6-(trifluoromethoxy)phenyl]-1H-pyrazol-4-yl}benzoyl)(1-cyanocyclopropyl)amino]methoxy}carbonyl)oxy]acetic Acid]"
7,0.098,"Cn1nc(C(F)(F)C(F)(F)F)c(C(F)(F)F)c1-n1cc(-c2ccc(Cl)c(C(=O)N(COC(=O)OCCCOC(=O)/C=C/C(=O)O)C3(C#N)CC3)c2)cn1 [Example 25, (12E)-1-{2-Chloro-5-[2′-methyl-5′-(pentafluoroethyl)-4′-(trifluoromethyl)-2′H-[1,3′-bipyrazol]-4-yl]phenyl}-2-(1-cyanocyclopropyl)-1,5,11-trioxo-4,6,10-trioxa-2-azatetradec-12-en-14-oic Acid]"
8,0.147,"Cn1nc(C(F)(F)C(F)(F)F)c(C(F)(F)F)c1-n1cc(-c2ccc(Cl)c(C(=O)N(COC(=O)OCCOC(=O)C3(C(=O)O)CC3)C3(C#N)CC3)c2)cn1 [Example 27, 1-[10-{2-Chloro-5-[2′-methyl-5′-(pentafluoroethyl)-4′-(trifluoromethyl)-2′H-[1,3′-bipyrazol]-4-yl]phenyl}-9-(1-cyanocyclopropyl)-6,10-dioxo-2,5,7-trioxa-9-azadecanan-1-oyl]cyclopropane-1-carboxylic Acid]"
9,0.041,"Cn1nc(C(F)(F)C(F)(F)F)c(C(F)(F)F)c1-n1cc(-c2ccc(Cl)c(C(=O)N(COC(=O)O[C@H]3CC[C@@H](OC(=O)/C=C/C(=O)O)CC3)C3(C#N)CC3)c2)cn1 [Example 32, Cis-(2E)-4-({-4-[({[{2-Chloro-5-[2′-methyl-5′-(pentafluoroethyl)-4′-(trifluoromethyl)-2′H-[1,3′-bipyrazol]-4-yl]benzoyl}(1-cyanocyclopropyl)amino]methoxy}carbonyl)oxy]cyclohexyl}oxy)-4-oxobut-2-enoic Acid]"
10,0.004,"N#CC1(N(COC(=O)O[C@H]2CCC[C@H]2OC(=O)/C=C/C(=O)O)C(=O)c2cc(-c3cnn(-c4c(Cl)cc(C(F)(C(F)(F)F)C(F)(F)F)cc4OC(F)(F)F)c3)ccc2Cl)CC1 (relative stereo) [Example 6, (2E)-4-({(rel 1R,2S)-2-[({[(2-chloro-5-{1-[2-chloro-4-(1,1,1,2,3,3,3-heptafluoropropan-2-yl)-6-(trifluoromethoxy)phenyl]-1H-pyrazol-4-yl}benzoyl)(1-cyanocyclopropyl)amino]methoxy}carbonyl)oxy]cyclopentyl}oxy)-4-oxobut-2-enoic Acid]"
